Source: ChEMBL document CHEMBL1201862, “PubChem BioAssay data set” (2004)
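Cells were grown in 96-well plates and exposed to each compound for 48 hours at five concentrations; endpoints were interpolated linearly between bracketing concentrations, or set to the highest concentration if not reached. GI50: concentration for 50% inhibition of growth.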 The source made the active and inactive calls. Cut-off read from the data, not from the text of the source: active = GI50 up to about 1.1 µM and inactive = higher.

Legend:
Experiment in all cases: NCI tumour cell line growth inhibition, 48 h
COLO 205 = system: COLO 205
A498 = system: A498
LOX IMVI = system: LOX IMVI
UACC-257 = system: UACC-257
HCC 2998 = system: HCC 2998
SN12C = system: SN12C
NCI-H226 = system: NCI-H226
U-251 = system: U-251
SF-539 = system: SF-539
CCRF-CEM = system: CCRF-CEM
NCI-H460 = system: NCI-H460
786-0 = system: 786-0
SNB-19 = system: SNB-19
UO-31 = system: UO-31
RXF 393 = system: RXF 393
HOP-62 = system: HOP-62
SR = system: SR

Measured: GI50

CC1=NN(C(=O)c2ccc(Cl)cc2)C(=O)/C1=C/c1cccc(O)c1
inactive: COLO 205 > 100 µM | A498 > 100 µM | LOX IMVI > 100 µM | UACC-257 > 100 µM | HCC 2998 > 100 µM | SN12C > 100 µM | NCI-H226 > 100 µM | U-251 > 100 µM | SF-539 > 100 µM | CCRF-CEM > 100 µM | NCI-H460 > 100 µM | 786-0 > 100 µM | SNB-19 > 100 µM | UO-31 > 100 µM | RXF 393 > 100 µM | HOP-62 > 100 µM

c1ccc2c3c([nH]c2c1)[C@H]1C2CCCCN2CN1CC3 (some centres undefined)
inactive: COLO 205 > 100 µM | A498 > 100 µM | UACC-257 > 100 µM | HCC 2998 > 100 µM | SN12C > 100 µM | U-251 > 100 µM | SF-539 > 100 µM | CCRF-CEM > 100 µM | NCI-H460 > 100 µM | 786-0 > 100 µM | SNB-19 > 100 µM | UO-31 > 100 µM | RXF 393 89.9 µM | HOP-62 > 100 µM

N#CC(NNC(=O)c1ccccc1O)c1cccc(O)c1 (centres undefined)
inactive: COLO 205 32.7 µM | LOX IMVI 4.94 µM | UACC-257 10.1 µM | SN12C 4.7 µM | NCI-H226 11.5 µM | U-251 2.99 µM | SF-539 2.93 µM | CCRF-CEM 4.66 µM | NCI-H460 3.47 µM | 786-0 6.53 µM | SR > 100 µM | UO-31 1.55 µM | RXF 393 1.78 µM | HOP-62 10.6 µM

O=C(O)/C=C\C(=O)Nc1ccc(S(=O)(=O)c2ccc(NC(=O)/C=C\C(=O)O)cc2)cc1
inactive: COLO 205 > 100 µM | LOX IMVI > 100 µM | UACC-257 > 100 µM | SN12C > 100 µM | NCI-H226 > 100 µM | U-251 > 100 µM | SF-539 > 100 µM | CCRF-CEM > 100 µM | 786-0 > 100 µM | SNB-19 > 100 µM | SR > 100 µM | UO-31 > 100 µM | HOP-62 > 100 µM

Cn1cc(NC(=O)c2cc(NC(=O)CCCCCCC(=O)Nc3cc(C(=O)Nc4cc(C(=O)NCCC(=N)N)n(C)c4)n(C)c3)cn2C)cc1C(=O)NCCC(=N)N
inactive: COLO 205 6.08 µM | A498 1.93 µM | LOX IMVI 5.75 µM | UACC-257 2.2 µM | HCC 2998 10.7 µM | SN12C 3.84 µM | U-251 17.3 µM | SF-539 14.1 µM | CCRF-CEM > 100 µM | NCI-H460 3.68 µM | 786-0 12.9 µM | SNB-19 29.2 µM | UO-31 39.4 µM | RXF 393 17 µM

COc1ccc(-c2cc(C(=O)Nc3ccc(C)c(C)c3)nc(NC#N)n2)cc1
inactive: COLO 205 > 100 µM | A498 > 100 µM | LOX IMVI > 100 µM | UACC-257 > 100 µM | SN12C > 100 µM | U-251 > 100 µM | SF-539 > 100 µM | CCRF-CEM > 100 µM | NCI-H460 > 100 µM | 786-0 > 100 µM | SNB-19 > 100 µM | UO-31 > 100 µM | RXF 393 > 100 µM

O=C(c1ccccc1)C(c1ccccc1)C1(O)C(=O)Nc2c(Cl)cc(Cl)cc21 (centres undefined)
inactive: COLO 205 19.1 µM | LOX IMVI 19.5 µM | UACC-257 18.6 µM | HCC 2998 16.3 µM | SN12C > 100 µM | NCI-H226 16.7 µM | U-251 26.2 µM | CCRF-CEM 14 µM | NCI-H460 28.2 µM | 786-0 14.7 µM | SNB-19 21.7 µM | UO-31 18.9 µM | RXF 393 19.1 µM | HOP-62 > 10 µM

N#Cc1cccc(-n2[nH]c(=O)ccc2=O)c1
inactive: COLO 205 > 100 µM | UACC-257 > 100 µM | HCC 2998 > 100 µM | NCI-H226 > 100 µM | U-251 > 100 µM | SF-539 > 100 µM | CCRF-CEM > 100 µM | NCI-H460 > 100 µM | 786-0 > 100 µM | SNB-19 > 100 µM | SR > 100 µM | UO-31 > 100 µM | HOP-62 > 100 µM

COc1cc2nncc(Sc3cnnc4ccccc34)c2cc1OC
inactive: COLO 205 22.6 µM | A498 26.7 µM | LOX IMVI 23.3 µM | UACC-257 23.1 µM | HCC 2998 17.6 µM | NCI-H226 23.7 µM | U-251 25.5 µM | SF-539 21 µM | CCRF-CEM 17.5 µM | NCI-H460 22.8 µM | 786-0 27.4 µM | SNB-19 19.8 µM | UO-31 19.1 µM | HOP-62 34.3 µM

NNC(=O)C(=O)N/N=C1\CCCC1C(=O)CCC(=O)Nc1cccc(Cl)c1 (centres undefined)
inactive: COLO 205 > 100 µM | LOX IMVI > 100 µM | UACC-257 > 100 µM | HCC 2998 > 100 µM | SN12C > 100 µM | NCI-H226 > 100 µM | U-251 > 100 µM | CCRF-CEM > 100 µM | NCI-H460 > 100 µM | 786-0 > 100 µM | SNB-19 > 100 µM | UO-31 > 100 µM | RXF 393 > 100 µM | HOP-62 > 100 µM

O=Cc1c[nH]c2c(=O)[nH]cnc12
inactive: COLO 205 > 100 µM | LOX IMVI > 100 µM | UACC-257 > 100 µM | HCC 2998 > 100 µM | SN12C > 100 µM | CCRF-CEM > 100 µM | 786-0 > 100 µM | SNB-19 > 100 µM | SR > 100 µM | UO-31 > 100 µM | RXF 393 > 100 µM | HOP-62 > 100 µM

CCN(CC)CC1c2ccccc2C(CNc2ccccc2)N1C (centres undefined)
inactive: COLO 205 > 100 µM | LOX IMVI > 100 µM | UACC-257 > 100 µM | HCC 2998 > 100 µM | SN12C > 100 µM | CCRF-CEM 83.8 µM | NCI-H460 > 100 µM | 786-0 > 100 µM | SNB-19 > 100 µM | UO-31 > 100 µM | RXF 393 > 100 µM | HOP-62 > 100 µM

C/C(=N\[N+](C)(C)C)C(c1ccccc1)C1(c2ccccc2)C(c2ccccc2)=C1c1ccccc1 (centres undefined)
inactive: A498 > 100 µM | LOX IMVI > 100 µM | UACC-257 > 100 µM | HCC 2998 > 100 µM | SN12C > 100 µM | NCI-H226 19.4 µM | U-251 66.1 µM | SF-539 37.5 µM | CCRF-CEM > 100 µM | NCI-H460 > 100 µM | 786-0 > 100 µM | SNB-19 > 100 µM | UO-31 53.1 µM | RXF 393 22 µM | HOP-62 33 µM

CCN(CC)CCOC(c1ccccc1)c1ccccc1.CCOC(=O)Nc1ccc(S(=O)(=O)NCCCl)cc1.CCOC(=O)Nc1ccc(S(=O)(=O)NCCCl)cc1.Nc1ccc(C(=O)O)c(O)c1
inactive: COLO 205 > 100 µM | A498 > 100 µM | LOX IMVI > 100 µM | UACC-257 > 100 µM | HCC 2998 > 100 µM | SN12C > 100 µM | NCI-H226 > 100 µM | U-251 > 100 µM | SF-539 > 100 µM | CCRF-CEM > 100 µM | NCI-H460 > 100 µM | 786-0 > 100 µM | SNB-19 > 100 µM | UO-31 > 100 µM | RXF 393 > 100 µM | HOP-62 > 100 µM
